Measurements taken from PubChem BioAssay AID264 (DTP/NCI, 2004).
“And” between values parts separate entries of the source, which are not always exact repeats. Equal entries are not always repeated. Results filed as inconclusive are left out.

System: nude mice, LX-1 lung xenograft intrarenal, tumor weight T/C
Experiment: NCI In Vivo Anticancer Drug Screen. Data for tumor model Human Lung LX-1 Xenograft (intrarenal inoculation) in NU/NU Swiss (nude) mice
Details: endpoint: mean tumor weight change, higher = larger tumour
In short: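 Tumor-bearing mice receive test compound or vehicle; tumor size is then measured in each group. The treated value is divided by the vehicle value to give T/C.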

[1] = dose: 300.0 mg/kg/injection, schedule: Q04DX003 (sc), vehicle: saline with Tween-80
[2] = dose: 600.0 mg/kg/injection, schedule: Q04DX003 (sc), vehicle: Klucel (hydroxypropylcellulose) (HPC)
[3] = dose: 1200.0 mg/kg/injection, schedule: Q04DX003 (sc), vehicle: Klucel (hydroxypropylcellulose) (HPC)

## CNC(=O)OCc1c(COC(=O)NC)c(-c2ccc(Cl)c(Cl)c2)n2c1Cc1ccccc1C2
dose: 150.0 mg/kg/injection, schedule: Q04DX003 (sc), vehicle: distilled water + Tween-80
  T/C: 97 % of control
dose: 300.0 mg/kg/injection, schedule: Q04DX003 (sc), vehicle: distilled water + Tween-80
  T/C: 71 % of control
dose: 600.0 mg/kg/injection, schedule: Q04DX003 (sc), vehicle: distilled water + Tween-80
  T/C: 58 % of control
dose: 1200.0 mg/kg/injection, schedule: Q04DX003 (sc), vehicle: distilled water + Tween-80
  T/C: 54 % of control

## Cc1cc2nc3c(=O)[nH]c(=O)nc-3n(CC(O)C(O)C(O)C(O)CO)c2cc1C (stereo not drawn)
dose: 100.0 mg/kg/injection, schedule: Q01DX010 (sc), vehicle: saline with Tween-80
  T/C: 75 % of control
dose: 200.0 mg/kg/injection, schedule: Q01DX010 (sc), vehicle: saline with Tween-80
  T/C: 92 % of control
dose: 400.0 mg/kg/injection, schedule: Q01DX010 (sc), vehicle: saline with Tween-80
  T/C: 66 % of control

## Cc1ccc(NC(=O)Oc2ccc(Br)cc2Br)c([N+](=O)[O-])c1
[1]
  T/C: 61 % of control
dose: 600.0 mg/kg/injection, schedule: Q04DX003 (sc), vehicle: saline with Tween-80
  T/C: 98 % of control
dose: 1200.0 mg/kg/injection, schedule: Q04DX003 (sc), vehicle: saline with Tween-80
  T/C: 93 % of control
dose: 2400.0 mg/kg/injection, schedule: Q04DX003 (sc), vehicle: saline with Tween-80
  T/C: 68 % of control

## CC(=O)OC1=NC(C)c2c1cc(OC(C)=O)[nH]c2=O (stereo not drawn)
dose: 150.0 mg/kg/injection, schedule: Q04DX003 (sc), vehicle: Klucel (hydroxypropylcellulose) (HPC)
  T/C: 90 % of control
dose: 300.0 mg/kg/injection, schedule: Q04DX003 (sc), vehicle: Klucel (hydroxypropylcellulose) (HPC)
  T/C: 87 % of control
[2]
  T/C: 87 % of control
[3]
  T/C: 74 % of control

## COC1CC(CC2CCC(C)C(C(C)C(=O)O)O2)OC2(OC(C)(C3CCC(C)(C4OC(C5OC(O)(CO)C(C)CC5C)CC4C)O3)CC2C)C1C (stereo not drawn)
dose: 3.75 mg/kg/injection, schedule: Q04DX003 (sc), vehicle: Klucel (hydroxypropylcellulose) (HPC)
  T/C: 110 % of control
dose: 7.5 mg/kg/injection, schedule: Q04DX003 (sc), vehicle: Klucel (hydroxypropylcellulose) (HPC)
  T/C: 102 % of control
dose: 30.0 mg/kg/injection, schedule: Q04DX003 (sc), vehicle: Klucel (hydroxypropylcellulose) (HPC)
  T/C: 108 % of control

## O=C(O)C1CSCN1 (stereo not drawn)
dose: 50.0 mg/kg/injection, schedule: Q01DX010 (sc), vehicle: water
  T/C: 86 % of control
dose: 100.0 mg/kg/injection, schedule: Q01DX010 (sc), vehicle: water
  T/C: 68 % of control

## O=S(=O)(SC(S(=O)(=O)c1ccccc1)S(=O)(=O)c1ccccc1)c1ccccc1
dose: 100.0 mg/kg/injection, schedule: Q04DX003 (sc), vehicle: Klucel (hydroxypropylcellulose) (HPC)
  T/C: 115 % of control
dose: 400.0 mg/kg/injection, schedule: Q04DX003 (sc), vehicle: Klucel (hydroxypropylcellulose) (HPC)
  T/C: 69 % of control
[2]
  T/C: 63 % of control
dose: 800.0 mg/kg/injection, schedule: Q04DX003 (sc), vehicle: Klucel (hydroxypropylcellulose) (HPC)
  T/C: 77 % of control
[3]
  T/C: 65 % of control

## COc1cccc2c1C(=O)c1c(O)c3c(c(O)c1C2=O)C[C@@](O)(/C(CO)=N/NC(=O)c1ccc(Cl)c(Cl)c1)C[C@@H]3OC1CC(N)C(O)C(C)O1 (stereo partly drawn)
dose: 8.0 mg/kg/injection, schedule: Q01DX010 (sc), vehicle: water
  T/C: 28 % of control
dose: 16.0 mg/kg/injection, schedule: Q01DX010 (sc), vehicle: water
  T/C: 2 % of control
dose: 24.0 mg/kg/injection, schedule: Q04DX003 (sc), vehicle: water
  T/C: 54 % of control
dose: 48.0 mg/kg/injection, schedule: Q04DX003 (sc), vehicle: water
  T/C: 66 % of control
dose: 96.0 mg/kg/injection, schedule: Q04DX003 (sc), vehicle: water
  T/C: 33 % of control
dose: 192.0 mg/kg/injection, schedule: Q04DX003 (sc), vehicle: water
  T/C: 30 % of control

## CCN(CC)CCCC(C)Nc1c2ccc(Cl)cc2nc2ccc(OC)cc12 (stereo not drawn)
dose: 12.5 mg/kg/injection, schedule: Q01DX010 (sc), vehicle: saline with Tween-80
  T/C: 98 % of control
dose: 25.0 mg/kg/injection, schedule: Q01DX010 (sc), vehicle: saline with Tween-80
  T/C: 102 % of control and 108 % of control
dose: 150.0 mg/kg/injection, schedule: Q04DX003 (sc), vehicle: saline with Tween-80
  T/C: 75 % of control
[1]
  T/C: 41 % of control

## ClCC[Se](Cl)(Cl)c1ccccc1
dose: 12.5 mg/kg/injection, schedule: Q04DX003 (sc), vehicle: saline
  T/C: 92 % of control
dose: 25.0 mg/kg/injection, schedule: Q04DX003 (sc), vehicle: saline
  T/C: 70 % of control
dose: 50.0 mg/kg/injection, schedule: Q04DX003 (sc), vehicle: saline
  T/C: 46 % of control
